# BindingDB's records for patent US11053253 (Achillion Pharmaceuticals, 2021)
# Molecular target: Complement factor D (Homo sapiens, UniProt P00746)
# Assay: Human Factor D Assay
# Method: Human Factor D (purified from human serum, Complement Technology, Inc.) at 80 nM final concentration is incubated with test compound at various concentrations for 5 min at room temperature in 50 mM Tris, 1M NaCl, pH 7.5. A synthetic substrate Z-L-Lys-SBzl and DTNB (Ellman's reagent) are added to final concentrations of 100 µM each. Absorbance at 405 nm (A405) is recorded at 30 second intervals for 30 minutes using a microplate spectrophotometer. IC50 values are calculated by nonlinear regression of Complement Factor D reaction rates as a function of test compound concentration.
# Chain of Complement factor D (P00746 whole entry): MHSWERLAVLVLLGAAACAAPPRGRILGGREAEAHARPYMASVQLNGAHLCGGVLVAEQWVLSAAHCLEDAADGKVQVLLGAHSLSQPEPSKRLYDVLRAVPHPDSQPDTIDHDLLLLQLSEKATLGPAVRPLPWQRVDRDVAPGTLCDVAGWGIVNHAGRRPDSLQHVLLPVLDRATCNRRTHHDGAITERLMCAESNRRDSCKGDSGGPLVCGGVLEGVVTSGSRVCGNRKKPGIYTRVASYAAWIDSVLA
row,Compound,IC50 [nM]
1,"CC(=O)c1nn(CC(=O)N2[C@H]3C[C@@]4(C=CCCCN(C)S(=O)(=O)Cc5ccc(Br)nc5NC3=O)C[C@@H]24)c2ccc(-c3cnc(C)nc3)cc12 [US11053253, Cmp No. T-215]",< 1000
2,"CC(=O)c1nn(CC(=O)N2[C@H]3C[C@]4(C[C@@H]24)Cn2ccc(n2)/C=C/COCc2ccc(Br)nc2NC3=O)c2cnc(-c3cnc(C)nc3)cc12 [US11053253, Cmp No. T-68]",< 1000
3,"CC(=O)c1nn(CC(=O)N2[C@H]3C[C@@]4(C=CCCCN(C)S(=O)(=O)Cc5ccc(Br)nc5NC3=O)C[C@@H]24)c2c(C)cc(-c3cnc(C)nc3)cc12 [US11053253, Cmp No. T-216]",< 1000
4,"CC(=O)c1nn(CC(=O)N2[C@H]3C[C@]4(C[C@@H]24)Cn2ccc(n2)/C=C/COCc2ccc(Br)nc2NC3=O)c2ccc(-c3cnc(C)nc3)cc12 [US11053253, Cmp No. T-67]",< 1000
5,"CC(=O)c1nn(CC(=O)N2[C@H]3C[C@@]4(COCC=CCOCc5cc(Br)nc(c5)NC3=O)C[C@@H]24)c2cnc(-c3cnc(C)nc3)cc12 [US11053253, Cmp No. T-83]",< 1000
